Experiments:
cytidine deaminase = cytidine deaminase (Homo sapiens, UniProt P32320); details: compared to conventional compounds with a 5-azacytidine backbone; cited from earlier work
[1] = Animal PK, NCA parameters, dog; details: in vivo
MV4-11 AML cells [2] = assay: Systemic AML model, MV4-11 AML cells transplanted into the bone marrow (survival, clinical observations)
[3] = Absorption parameters over three species; assay type: in vivo, mice, rats, or dogs
Excerpt: Details are described in the next section. […] See also FIG. 3 and FIG. 7.
The human F calculated by the equation reported in literature was about 0.65 (from mouse), 0.59 (from rat), or 0.66 (from dog). See Musther et al. (2014) European Journal of Pharmaceutical Sciences 57: 280-291.

[4] = Human PK parameter prediction by interspecies (allometric) scaling; details: for F_human (equation result): in % (unit assumed)
Excerpt: PK parameters were scaled allometrically and used to extrapolate the PK in a 70 kg human. Details are described in the next section.
Simple allometric scaling, was used to predict CL, Vc, Vp, and Q. Y is PK parameter, BW is body weight, a is the allometric coefficient, and b is the allometric exponent. Final PK parameters, CL, Vc, Vp, and Q, were extrapolated based on the best-fit-lines (FIG. 8).
See Musther et al. (2014) European Journal of Pharmaceutical Sciences 57: 280-291.
For absorption rate constant (Ka) and bioavailability (F), animal parameters were used.

Molm13 AML cells = assay: Xenograft model with subcutaneously transplanted Molm13 AML cells; assay type: in vivo, mouse; details: 1.5 or 2.5 mpk PO, one cycle
[5] = test system: MDS orthotopic animal models; details: reported in 2018; cited from earlier work
[6] = test system: blood cancer mouse models; assay: Blood cancer mouse models (summary statement); assay type: in vivo; details: 1.4 to 2.6 mpk PO for 5 days, 2-day break, 9-day break
Mouse PK (AUC) = assay type: in vivo; details: for AUC: in vivo, mouse
Excerpt: (§1) Without wishing to be bound by theory, this is excellent efficacy at a level that is impossible to reach by the same family of cytidine-based drugs such as decitabine or azacytidine, which was conventionally used, and according to conventional reports on Aza-T-dCyd, the level corresponds to a dose of a level expected to have toxicity.

DNMT1 = DNMT1 (Homo sapiens, UniProt P26358); details: background statement; cited from earlier work
[7] = Animal PK, NCA parameters, mouse; details: in vivo
[8] = Animal PK, NCA parameters, rat; details: in vivo
MV4-11 AML cells [9] = assay: Xenograft AML model with subcutaneously transplanted MV4-11 AML cells, alone and in combination with Venetoclax; assay type: in vivo, mouse; details: Aza-T-dCyd 2.0 mpk PO alone, Aza-T-dCyd 0.5 mpk with Venetoclax 50 mpk PO, Azacitidine 5.0 mpk IP alone
Excerpt: 5.0 mpk of Azacitidine alone; or 2.5 mpk of Azacitidine in combination of 50 mpk of Venetoclax were intraperitoneal (IP) administered as a control.

normal mouse = assay: Bone marrow toxicity after one-cycle PO administration to a normal mouse; assay type: in vivo
Excerpt: In the case of elderly patients who cannot receive bone marrow transplants, that is, the main targets of decitabine and azacytidine, toxicity in the bone marrow becomes the limit dose that determines a dose for administration, and, thus, the maximum dose that enables safe administration was to be determined.

MV4-11 AML cells [10] = assay: Blood analysis (CBC sampling) in the systemic AML model; details: blood samples collected in the AML model experiment
[11] = Simulation of human PK using decitabine PK parameters; details: from animal parameters, used in human simulation
Excerpt: as §1

in vivo [12] = details: dog, iv, 0.33 mg/kg
in vivo [13] = details: mouse, iv, 1 mg/kg
in vivo [14] = details: rat, iv, 1 mg/kg
[15] = cited from earlier work
[16] = human decitabine parameter used in simulation

DNMT1, sequence (P26358 whole entry, species assumed): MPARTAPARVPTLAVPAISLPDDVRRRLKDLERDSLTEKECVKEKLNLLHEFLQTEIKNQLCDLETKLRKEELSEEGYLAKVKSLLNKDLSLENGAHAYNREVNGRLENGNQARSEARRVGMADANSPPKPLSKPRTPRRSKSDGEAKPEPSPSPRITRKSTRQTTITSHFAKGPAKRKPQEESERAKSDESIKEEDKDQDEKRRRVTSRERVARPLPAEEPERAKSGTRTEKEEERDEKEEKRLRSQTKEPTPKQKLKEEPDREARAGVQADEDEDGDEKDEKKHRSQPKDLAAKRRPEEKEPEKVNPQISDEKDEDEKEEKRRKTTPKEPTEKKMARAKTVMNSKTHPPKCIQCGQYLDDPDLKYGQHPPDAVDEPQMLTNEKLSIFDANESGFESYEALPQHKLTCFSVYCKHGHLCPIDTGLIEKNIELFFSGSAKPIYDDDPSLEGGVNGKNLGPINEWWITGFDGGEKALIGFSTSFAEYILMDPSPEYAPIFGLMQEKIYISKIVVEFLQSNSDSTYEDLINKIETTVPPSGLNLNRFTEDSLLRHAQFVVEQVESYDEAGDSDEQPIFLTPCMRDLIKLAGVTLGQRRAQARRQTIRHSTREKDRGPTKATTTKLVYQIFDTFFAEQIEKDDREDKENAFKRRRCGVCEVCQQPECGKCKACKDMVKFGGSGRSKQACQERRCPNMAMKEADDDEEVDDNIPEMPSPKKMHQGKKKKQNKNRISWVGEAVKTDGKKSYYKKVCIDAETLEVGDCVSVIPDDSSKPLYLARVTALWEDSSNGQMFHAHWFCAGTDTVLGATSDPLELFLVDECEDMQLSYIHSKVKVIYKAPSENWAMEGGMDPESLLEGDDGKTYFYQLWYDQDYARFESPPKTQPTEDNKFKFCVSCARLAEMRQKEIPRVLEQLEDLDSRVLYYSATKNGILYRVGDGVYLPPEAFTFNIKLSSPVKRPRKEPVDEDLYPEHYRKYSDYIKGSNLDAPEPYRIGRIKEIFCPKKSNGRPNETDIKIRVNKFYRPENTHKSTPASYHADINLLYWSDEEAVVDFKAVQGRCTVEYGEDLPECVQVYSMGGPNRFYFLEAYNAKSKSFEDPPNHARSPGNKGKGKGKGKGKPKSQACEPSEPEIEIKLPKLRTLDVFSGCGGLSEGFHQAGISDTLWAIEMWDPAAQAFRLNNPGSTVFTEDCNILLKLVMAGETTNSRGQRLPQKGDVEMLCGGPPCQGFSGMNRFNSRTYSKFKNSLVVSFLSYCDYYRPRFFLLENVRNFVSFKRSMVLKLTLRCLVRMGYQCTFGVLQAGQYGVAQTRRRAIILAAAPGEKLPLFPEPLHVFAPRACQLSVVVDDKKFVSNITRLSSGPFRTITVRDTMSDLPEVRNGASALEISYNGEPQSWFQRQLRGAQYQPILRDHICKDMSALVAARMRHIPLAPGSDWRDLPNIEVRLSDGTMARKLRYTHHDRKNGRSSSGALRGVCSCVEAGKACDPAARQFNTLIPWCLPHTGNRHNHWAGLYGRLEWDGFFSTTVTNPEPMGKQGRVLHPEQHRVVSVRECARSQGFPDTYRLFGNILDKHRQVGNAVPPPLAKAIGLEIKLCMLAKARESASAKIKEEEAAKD
cytidine deaminase, sequence (P32320 whole entry, species assumed): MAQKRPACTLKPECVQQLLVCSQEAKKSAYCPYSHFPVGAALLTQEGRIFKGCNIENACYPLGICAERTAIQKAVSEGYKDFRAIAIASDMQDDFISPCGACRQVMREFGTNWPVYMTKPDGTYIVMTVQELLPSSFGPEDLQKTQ

In the case of `Nc1ncn(C2CC(O)C(CO)S2)c(=O)n1` (stereo not drawn) [Aza-T-dCyd, 4′-Thio-5-aza-2′-deoxycytidine], the “rate of degradation by cytidine deaminase” value (cytidine deaminase) is listed as “reduced rate of degradation by cytidine deaminase”, the bioavailability [1] is listed as 68.7% and the AUC(0-inf) ([1]; iv, 0.33 mg/kg) is listed as 1130 ng·h/mL. It also gave a C0 ([1]; iv, 0.33 mg/kg) of 586 ng/mL, a Vd ([1]; iv, 0.33 mg/kg) of 0.81 L/kg and a clearance ([1]; iv, 0.33 mg/kg) of 5 mL/min/kg. The half-life ([1]; iv, 0.33 mg/kg) was 2.25 h, the “therapeutic efficacy against MDS/AML” value (MV4-11 AML cells [2]; 1.4 to 2.6 mpk based on a mouse) was “excellent therapeutic efficacy against MDS/AML” and the efficacy (MV4-11 AML cells [2]; 1.5 mpk PO, three cycles) was “an efficacy which did not reach that of the PO administration of 2.0 to 2.5 mpk of Aza-T-dCyd”. The “clinical observations including body weight” value (MV4-11 AML cells [2]; 2.0 mpk PO, one cycle) was “stay in the normal range”, the “clinical observations including mouse body weight” value (MV4-11 AML cells [2]; 2.0 mpk PO, three cycles) was “remained in the normal range” and the survival improvement (MV4-11 AML cells [2]; 2.0 mpk PO, three cycles) was “very excellent survival improvement”. For the same compound, the death of subjects (MV4-11 AML cells [2]; 2.5 mpk PO, three cycles) was “led to the death of some subjects”, the survival improvement (MV4-11 AML cells [2]; one cycle, Aza-T-dCyd 2.0 mpk PO, decitabine and azacytidine at optimal doses as controls) was “very excellent survival improvement” and the “average absorption rate constant (Ka)” value ([3]; average from three species) was “approximately 2.63 h^−1”. For the same compound, the bioavailability ([3]; mouse, rat, dog, in vivo, average from three species, read-out: average bioavailability (F)) was about 54%, the Tmax ([3]; mouse, rat, dog, in vivo, range of the three species) was 0.25 to 2 h and the “F_human (equation result)” value ([4]; From Dog) was 66.28. The “F_human (equation result)” value ([4]; From Mouse) was 65.16, the “F_human (equation result)” value ([4]; From Rat) was 59.26 and the “human Ka” value ([4]; estimated assuming Tmax in a human is 1 hour, value set) was 2.8 h⁻¹. The “human F calculated by literature equation” value (from here on “human F calculated”) ([4]; from dog) was about 0.66, the “human F calculated” value ([4]; from mouse) was “about 0.65” and the “human F calculated” value ([4]; from rat) was about 0.59. For the same compound, the “CL Clearance, Predicted Value” ([4]; predicted for a 70 kg human) was 8.95 L/h, the “F Absolute bioavailability, Predicted Value” ([4]; predicted for a 70 kg human) was 0.6 and the “Ka The first-order absorption rate constant, Predicted Value” ([4]; predicted for a 70 kg human) was 2.8 h⁻¹. The “Q Intercompartmental clearance, Predicted Value” ([4]; predicted for a 70 kg human) was 250.52 L/h, the “Vc Central volume = V2, Predicted Value” ([4]; predicted for a 70 kg human) was 29.50 L and the “Vp Peripheral volume = V3, Predicted Value” ([4]; predicted for a 70 kg human) was 12.92 L. The “human F (set value)” value ([4]; set in consideration of the results) was 0.6, the anticancer efficacy (Molm13 AML cells) was “excellent anticancer efficacy close to tumor regression” and the toxicity [5] was “so severe that therapeutic efficacy was not observed”. For the same compound, the anticancer effect [6] was “significant anticancer effect”, the “maximum range of change of total area under curve (AUC)” value (Mouse PK (AUC); 2.0 mpk PO) was “approximately 25%” and the AUC (Mouse PK (AUC); oral, 0.07 mg/kg, 0.07 mpk) was 11.3 ng·h/mL. For the same compound, the AUC (Mouse PK (AUC); oral, 0.13 mg/kg, 0.13 mpk) was 19.3 ng·h/mL, the AUC (Mouse PK (AUC); oral, 0.27 mg/kg, 0.27 mpk) was 38.1 ng·h/mL and the AUC (Mouse PK (AUC); oral, 0.4 mg/kg, 0.4 mpk) was 55.4 ng·h/mL. It also gave an AUC (Mouse PK (AUC); oral, 0.8 mg/kg, 0.8 mpk) of 109 ng·h/mL, an AUC (Mouse PK (AUC); oral, 1 mg/kg, 1.0 mpk) of 136 ng·h/mL and an AUC (Mouse PK (AUC); oral, 1.4 mg/kg, 1.4 mpk) of 183 ng·h/mL. The AUC (Mouse PK (AUC); oral, 1.5 mg/kg, 1.5 mpk) was 203 ng·h/mL, the AUC (Mouse PK (AUC); oral, 2.5 mg/kg, 2.5 mpk) was 336 ng·h/mL and the AUC (Mouse PK (AUC); oral, 2.6 mg/kg, 2.6 mpk) was 355 ng·h/mL. The AUC (Mouse PK (AUC); oral, 3 mg/kg, 3.0 mpk) was 403 ng·h/mL, the AUC (Mouse PK (AUC); oral, 10 mg/kg, 10 mpk) was 1340 ng·h/mL and the AUC (Mouse PK (AUC); po, 2 mg/kg, 2.0 mpk) was 270 ng·h/mL. For the same compound, the “DNMT removal and inhibitory activities in cells” value (DNMT1) was “high DNMT removal and inhibitory activities in cells”, the bioavailability [7] was 50.6% and the AUC(0-inf) ([7]; iv, 1 mg/kg) was 406 ng·h/mL. For the same compound, the C0 ([7]; iv, 1 mg/kg) was 616 ng/mL, the Vd ([7]; iv, 1 mg/kg) was 1.9 L/kg and the clearance ([7]; iv, 1 mg/kg) was 42.3 mL/min/kg. It also gave a half-life ([7]; iv, 1 mg/kg) of 0.6 h, a bioavailability [8] of 43.2% and an AUC(0-inf) ([8]; iv, 1 mg/kg) of 1900 ng·h/mL. It also gave a C0 ([8]; iv, 1 mg/kg) of 562 ng/mL, a Vd ([8]; iv, 1 mg/kg) of 3.53 L/kg and a clearance ([8]; iv, 1 mg/kg) of 8.83 mL/min/kg. The half-life ([8]; iv, 1 mg/kg) was 5.01 h, the “anti-cancer effects (tumor volume)” value (MV4-11 AML cells [9]) was “very excellent anti-cancer effects” and the “change in the bone marrow” value (normal mouse; 2.5 mpk PO, one cycle) was “a significant change in the bone marrow started to be observed”. For the same compound, the “viability and composition of each cell in the bone marrow” value (normal mouse; up to 2.0 mpk PO, one cycle (5 days, 2-day break, 5 days, 9-day break)) was “no significant change in the viability and composition of each cell in the bone marrow”, the “blood analysis: major parameters (WBC, neutrophil, platelet, RBC levels)” value (MV4-11 AML cells [10]) was “no change in major parameters” and the “F Absolute bioavailability” value [11] was 0.6. For the same compound, the “Ka The first-order absorption rate constant” value [11] was 2.8 h⁻¹.
With `Nc1ncn([C@@H]2O[C@H](CO)[C@@H](O)[C@H]2O)c(=O)n1` [azacytidine, reference compound] the “blood analysis: major parameters (WBC, neutrophil, platelet, RBC levels)” value (MV4-11 AML cells [10]) was “severe neutropenia”.
Work on `Nc1ncn([C@H]2C[C@H](O)[C@@H](CO)O2)c(=O)n1` [decitabine, reference compound] yielded a half-life (in vivo [12]) of 1.19 h, an AUC(0-inf) ([1]; iv, 0.33 mg/kg) of 1080 ng·h/mL and a C0 ([1]; iv, 0.33 mg/kg) of 746 ng/mL. It also gave a Vd ([1]; iv, 0.33 mg/kg) of 0.476 L/kg, a clearance ([1]; iv, 0.33 mg/kg) of 5.17 mL/min/kg and a half-life (in vivo [13]) of 0.4 h. For the same compound, the half-life (in vivo [14]) was 3.71 h, the “Q Intercompartmental clearance” value [15, 16] was 23 L/h and the “Vc Central volume = V2” value [15, 16] was 32 L. For the same compound, the “Vp Peripheral volume = V3” value [15, 16] was 40 L, the “CL Clearance” value ([15]; human, reported in literature, used in human simulation) was 152 L/h and the AUC(0-inf) ([7]; iv, 1 mg/kg) was 268 ng·h/mL. It also gave a C0 ([7]; iv, 1 mg/kg) of 579 ng/mL, a Vd ([7]; iv, 1 mg/kg) of 1.7 L/kg and a clearance ([7]; iv, 1 mg/kg) of 62.5 mL/min/kg. The AUC(0-inf) ([8]; iv, 1 mg/kg) was 2370 ng·h/mL, the C0 ([8]; iv, 1 mg/kg) was 504 ng/mL and the Vd ([8]; iv, 1 mg/kg) was 2.16 L/kg. The clearance ([8]; iv, 1 mg/kg) was 7 mL/min/kg.

From patent publication US12208112B2, “Composition for treating blood cancer using 4′-thio-5-Aza-2′-deoxycytidine and uses thereof” (Southern Research Institute, priority 2020, dated 2025)
